{
  "source": "the supplement of paper PMC4858399",
  "details_in_all_cases": "exposure time 48 h",
  "key": {"[1]": {"system": "Caenorhabditis elegans N2", "assay": "mean nematode size ln(EXT) after 48 h, plate-adjusted (DMSO control set to 6) (ln(EXT), control-adjusted); higher = larger nematodes / less growth inhibition", "in_short": "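C. elegans N2 larvae, synchronised at L1, grew for 48 h at 20°C in K-medium with killed OP50, 1% DMSO and 0.5–200 µM chemical. Mean size per well was derived from natural-logged Biosort extinction after a growth model removed debris. Adjustment across plates involved subtracting the vehicle control mean and adding 6.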"}, "[2]": {"system": "Caenorhabditis elegans N2", "assay": "AC50 for larval growth inhibition (Hill fit); higher = less potent", "in_short": "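After 48 h at 20°C in K-medium with killed OP50, 1% DMSO and 0.5–200 µM chemical, synchronised C. elegans N2 L1 larvae (50 per well, 96-well plates) were sized individually as extinction on a COPAS Biosort. These values were log-transformed and averaged per well, and wells with fewer than 10 worms were excluded. The AC50 was derived from a constrained Hill fit by weighted genetic-algorithm regression, and out-of-range values are censored.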"}, "[3]": {"system": "Caenorhabditis elegans N2", "assay": "lowest effective concentration for larval growth inhibition (size below effect threshold); higher = less potent", "in_short": "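Chemical exposure ran for 48 h at 20°C: 50 C. elegans N2 L1 larvae per 96-well in K-medium with killed bacteria, 1% DMSO and 0.5, 1, 5, 10, 50, 100 or 200 µM chemical. Extinction of each worm, read as size on the Biosort, was log-transformed and averaged by well. The lowest effective concentration is the first dose whose plate-adjusted mean size is below a fixed value and remains so at all higher doses; the value is 5.665.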"}},
  "data": [
    {"molecule": "CC(C)=CCC/C(C)=C\\CO", "note": "[cis-3,7-Dimethyl-2,6-octadien-1-ol]", "values": [
      {"measurement": "mean nematode size ln(EXT) (ln)", "setting": "[1]; 0.5 µM", "result": 5.8},
      {"measurement": "mean nematode size ln(EXT) (ln)", "setting": "[1]; 1 µM", "result": 5.76},
      {"measurement": "mean nematode size ln(EXT) (ln)", "setting": "[1]; 5 µM", "result": 5.79},
      {"measurement": "mean nematode size ln(EXT) (ln)", "setting": "[1]; 10 µM", "result": 5.75},
      {"measurement": "mean nematode size ln(EXT) (ln)", "setting": "[1]; 50 µM", "result": 5.78},
      {"measurement": "mean nematode size ln(EXT) (ln)", "setting": "[1]; 100 µM", "result": 5.69},
      {"measurement": "mean nematode size ln(EXT) (ln)", "setting": "[1]; 200 µM", "result": 5.63},
      {"measurement": "AC50 for larval growth inhibition", "setting": "[2]", "result": "> 200", "unit": "µM"},
      {"measurement": "lowest effective concentration", "setting": "[3]", "result": 200, "unit": "µM"}
    ]},
    {"molecule": "COC(=O)Nc1nc2ccccc2[nH]1", "note": "[methyl 1H-benzimidazol-2-ylcarbamate]", "values": [
      {"measurement": "mean nematode size ln(EXT) (ln)", "setting": "[1]; 0.5 µM", "result": 5.81},
      {"measurement": "mean nematode size ln(EXT) (ln)", "setting": "[1]; 1 µM", "result": 5.7},
      {"measurement": "mean nematode size ln(EXT) (ln)", "setting": "[1]; 5 µM", "result": 5.32},
      {"measurement": "mean nematode size ln(EXT) (ln)", "setting": "[1]; 10 µM", "result": 5.32},
      {"measurement": "mean nematode size ln(EXT) (ln)", "setting": "[1]; 50 µM", "result": 5.06},
      {"measurement": "mean nematode size ln(EXT) (ln)", "setting": "[1]; 100 µM", "result": 4.58},
      {"measurement": "mean nematode size ln(EXT) (ln)", "setting": "[1]; 200 µM", "result": 4.89},
      {"measurement": "AC50 for larval growth inhibition", "setting": "[2]", "result": 6.43, "unit": "µM"},
      {"measurement": "lowest effective concentration", "setting": "[3]", "result": 5, "unit": "µM"}
    ]},
    {"molecule": "Clc1ccc(C(c2ccccc2Cl)C(Cl)(Cl)Cl)cc1", "note": "(stereo unspecified) [o,p'-DDT]", "values": [
      {"measurement": "mean nematode size ln(EXT) (ln)", "setting": "[1]; 0.5 µM", "result": 5.7},
      {"measurement": "mean nematode size ln(EXT) (ln)", "setting": "[1]; 1 µM", "result": 5.89},
      {"measurement": "mean nematode size ln(EXT) (ln)", "setting": "[1]; 5 µM", "result": 5.78},
      {"measurement": "mean nematode size ln(EXT) (ln)", "setting": "[1]; 10 µM", "result": 5.19},
      {"measurement": "mean nematode size ln(EXT) (ln)", "setting": "[1]; 50 µM", "result": 4.4},
      {"measurement": "mean nematode size ln(EXT) (ln)", "setting": "[1]; 100 µM", "result": 4.09},
      {"measurement": "mean nematode size ln(EXT) (ln)", "setting": "[1]; 200 µM", "result": 3.85},
      {"measurement": "AC50 for larval growth inhibition", "setting": "[2]", "result": 24.1, "unit": "µM"},
      {"measurement": "lowest effective concentration", "setting": "[3]", "result": 10, "unit": "µM"}
    ]},
    {"molecule": "Clc1ccc(C(c2ccc(Cl)cc2)C(Cl)Cl)cc1", "note": "[p,p'-DDD]", "values": [
      {"measurement": "mean nematode size ln(EXT) (ln)", "setting": "[1]; 0.5 µM", "result": 5.59},
      {"measurement": "mean nematode size ln(EXT) (ln)", "setting": "[1]; 1 µM", "result": 5.57},
      {"measurement": "mean nematode size ln(EXT) (ln)", "setting": "[1]; 5 µM", "result": 3.62},
      {"measurement": "mean nematode size ln(EXT) (ln)", "setting": "[1]; 10 µM", "result": 3.7},
      {"measurement": "mean nematode size ln(EXT) (ln)", "setting": "[1]; 50 µM", "result": 3.68},
      {"measurement": "mean nematode size ln(EXT) (ln)", "setting": "[1]; 100 µM", "result": 3.57},
      {"measurement": "mean nematode size ln(EXT) (ln)", "setting": "[1]; 200 µM", "result": 3.14},
      {"measurement": "AC50 for larval growth inhibition", "setting": "[2]", "result": 1.88, "unit": "µM"},
      {"measurement": "lowest effective concentration", "setting": "[3]", "result": "≤ 0.5", "unit": "µM"}
    ]},
    {"molecule": "ClC(Cl)=C(c1ccc(Cl)cc1)c1ccc(Cl)cc1", "note": "[p,p'-DDE]", "values": [
      {"measurement": "mean nematode size ln(EXT) (ln)", "setting": "[1]; 0.5 µM", "result": 5.79},
      {"measurement": "mean nematode size ln(EXT) (ln)", "setting": "[1]; 1 µM", "result": 5.71},
      {"measurement": "mean nematode size ln(EXT) (ln)", "setting": "[1]; 5 µM", "result": 4.36},
      {"measurement": "mean nematode size ln(EXT) (ln)", "setting": "[1]; 10 µM", "result": 4.21},
      {"measurement": "mean nematode size ln(EXT) (ln)", "setting": "[1]; 50 µM", "result": 3.94},
      {"measurement": "mean nematode size ln(EXT) (ln)", "setting": "[1]; 100 µM", "result": 3.93},
      {"measurement": "mean nematode size ln(EXT) (ln)", "setting": "[1]; 200 µM", "result": 3.67},
      {"measurement": "AC50 for larval growth inhibition", "setting": "[2]", "result": 2.64, "unit": "µM"},
      {"measurement": "lowest effective concentration", "setting": "[3]", "result": 5, "unit": "µM"}
    ]},
    {"molecule": "Clc1ccc(C(c2ccc(Cl)cc2)C(Cl)(Cl)Cl)cc1", "note": "[p,p'-DDT]", "values": [
      {"measurement": "mean nematode size ln(EXT) (ln)", "setting": "[1]; 0.5 µM", "result": 6},
      {"measurement": "mean nematode size ln(EXT) (ln)", "setting": "[1]; 1 µM", "result": 5.91},
      {"measurement": "mean nematode size ln(EXT) (ln)", "setting": "[1]; 5 µM", "result": 4.31},
      {"measurement": "mean nematode size ln(EXT) (ln)", "setting": "[1]; 10 µM", "result": 3.75},
      {"measurement": "mean nematode size ln(EXT) (ln)", "setting": "[1]; 50 µM", "result": 3.44},
      {"measurement": "mean nematode size ln(EXT) (ln)", "setting": "[1]; 100 µM", "result": 3.36},
      {"measurement": "mean nematode size ln(EXT) (ln)", "setting": "[1]; 200 µM", "result": 3.29},
      {"measurement": "AC50 for larval growth inhibition", "setting": "[2]", "result": 3.83, "unit": "µM"},
      {"measurement": "lowest effective concentration", "setting": "[3]", "result": 5, "unit": "µM"}
    ]},
    {"molecule": "Brc1ccc(Oc2ccccc2)cc1", "note": "[p-Bromodiphenyl-ether]", "values": [
      {"measurement": "mean nematode size ln(EXT) (ln)", "setting": "[1]; 0.5 µM", "result": 5.7},
      {"measurement": "mean nematode size ln(EXT) (ln)", "setting": "[1]; 1 µM", "result": 5.75},
      {"measurement": "mean nematode size ln(EXT) (ln)", "setting": "[1]; 5 µM", "result": 5.55},
      {"measurement": "mean nematode size ln(EXT) (ln)", "setting": "[1]; 10 µM", "result": 5.54},
      {"measurement": "mean nematode size ln(EXT) (ln)", "setting": "[1]; 50 µM", "result": 4.74},
      {"measurement": "mean nematode size ln(EXT) (ln)", "setting": "[1]; 100 µM", "result": 4.03},
      {"measurement": "mean nematode size ln(EXT) (ln)", "setting": "[1]; 200 µM", "result": 3.65},
      {"measurement": "AC50 for larval growth inhibition", "setting": "[2]", "result": 52.5, "unit": "µM"},
      {"measurement": "lowest effective concentration", "setting": "[3]", "result": 5, "unit": "µM"}
    ]},
    {"molecule": "Nc1ccc(Cl)cc1", "note": "[p-Chloroaniline]", "values": [
      {"measurement": "mean nematode size ln(EXT) (ln)", "setting": "[1]; 0.5 µM", "result": 5.79},
      {"measurement": "mean nematode size ln(EXT) (ln)", "setting": "[1]; 1 µM", "result": 5.76},
      {"measurement": "mean nematode size ln(EXT) (ln)", "setting": "[1]; 5 µM", "result": 5.74},
      {"measurement": "mean nematode size ln(EXT) (ln)", "setting": "[1]; 10 µM", "result": 5.76},
      {"measurement": "mean nematode size ln(EXT) (ln)", "setting": "[1]; 50 µM", "result": 5.28},
      {"measurement": "mean nematode size ln(EXT) (ln)", "setting": "[1]; 100 µM", "result": 4.43},
      {"measurement": "mean nematode size ln(EXT) (ln)", "setting": "[1]; 200 µM", "result": 4.21},
      {"measurement": "AC50 for larval growth inhibition", "setting": "[2]", "result": 58.2, "unit": "µM"},
      {"measurement": "lowest effective concentration", "setting": "[3]", "result": 50, "unit": "µM"}
    ]},
    {"molecule": "CC(C)(C)c1cc(O)ccc1O", "note": "[tert-Butylhydroquinone]", "values": [
      {"measurement": "mean nematode size ln(EXT) (ln)", "setting": "[1]; 0.5 µM", "result": 5.85},
      {"measurement": "mean nematode size ln(EXT) (ln)", "setting": "[1]; 1 µM", "result": 5.85},
      {"measurement": "mean nematode size ln(EXT) (ln)", "setting": "[1]; 5 µM", "result": 5.96},
      {"measurement": "mean nematode size ln(EXT) (ln)", "setting": "[1]; 10 µM", "result": 5.81},
      {"measurement": "mean nematode size ln(EXT) (ln)", "setting": "[1]; 50 µM", "result": 5.62},
      {"measurement": "mean nematode size ln(EXT) (ln)", "setting": "[1]; 100 µM", "result": 5.41},
      {"measurement": "mean nematode size ln(EXT) (ln)", "setting": "[1]; 200 µM", "result": 5.03},
      {"measurement": "AC50 for larval growth inhibition", "setting": "[2]", "result": "> 200", "unit": "µM"},
      {"measurement": "lowest effective concentration", "setting": "[3]", "result": 50, "unit": "µM"}
    ]}
  ]
}
